From patent publication US9890152B2 (Genentech, Inc., priority 2012, dated 2018)

Target: T1, EGFR del746-750 T790M (Homo sapiens, UniProt P00533, DEL746-750/T790M)
T1 construct: purchased Carna Biosciences 08-528
Assay: EGFR del746-750 T790M biochemical assay (Caliper mobility shift)
Conditions: 5 μM ATP, 30 min, room temperature; apparent Ki (Morrison) converted by Cheng-Prusoff, Km of ATP 2.1 μM; read-out: EGFR(T790M/d746-750) Ki

T1 sequence (P00533 with tags, fused parts or gaps DEL746-750/T790M limits assumed): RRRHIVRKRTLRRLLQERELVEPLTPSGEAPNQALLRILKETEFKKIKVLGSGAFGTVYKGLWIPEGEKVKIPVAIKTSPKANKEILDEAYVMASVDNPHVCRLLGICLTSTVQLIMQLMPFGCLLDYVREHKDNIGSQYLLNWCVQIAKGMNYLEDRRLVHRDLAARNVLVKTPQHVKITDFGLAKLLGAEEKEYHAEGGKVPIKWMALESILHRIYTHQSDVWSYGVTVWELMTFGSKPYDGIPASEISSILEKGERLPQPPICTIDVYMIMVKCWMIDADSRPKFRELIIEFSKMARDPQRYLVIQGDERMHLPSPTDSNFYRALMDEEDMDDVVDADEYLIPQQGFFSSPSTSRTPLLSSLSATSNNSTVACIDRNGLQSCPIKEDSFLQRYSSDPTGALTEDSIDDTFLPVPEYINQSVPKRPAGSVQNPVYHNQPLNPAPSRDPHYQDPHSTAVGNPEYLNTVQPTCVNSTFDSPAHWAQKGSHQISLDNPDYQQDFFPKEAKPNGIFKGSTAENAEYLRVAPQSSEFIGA

Row | Ki [nM] | SMILES
1 | 3.07 | Cc1cn[nH]c1-c1cn(C(C)C)c2cc(Nc3ccnc(-c4cnn(S(=O)(=O)C5CC5)c4)n3)ncc12 [Example 346, N-(2-(1-(cyclopropylsulfonyl)-1H-pyrazol-4-yl)pyrimidin-4-yl)-1-isopropyl-3-(4-methyl-1H-pyrazol-5-yl)-1H-pyrrolo[3,2-c]pyridin-6-amine]
2 | 20.5 | Cc1cn[nH]c1-c1cn(C(C)C)c2cc(Nc3ccnc(N4CCC(O)C(C)(C)C4)n3)ncc12 (stereo not shown) [Example 347, 1-(4-((1-Isopropyl-3-(4-methyl-1H-pyrazol-5-yl)-1H-pyrrolo[3,2-c]pyridin-6-yl)amino)pyrimidin-2-yl)-3,3-dimethylpiperidin-4-ol]
3 | 19.6 | CO[C@H]1CCN(c2nccc(Nc3cc4c(cn3)c(-c3nn(CCO)cc3C)cn4C(C)C)n2)C[C@H]1F [Example 348, 2-(3-(6-((2-((3R,4S)-3-Fluoro-4-methoxypiperidin-1-yl)pyrimidin-4-yl)amino)-1-isopropyl-1H-pyrrolo[3,2-c]pyridin-3-yl)-4-methyl-1H-pyrazol-1-yl)ethanol]
4 | 692 | COC1CCN(c2nccc(Nc3cc4c(cn3)nc(C)n4C(C)CC#N)n2)CC1 (stereo not shown) [Example 349, 3-(6-((2-(4-Methoxypiperidin-1-yl)pyrimidin-4-yl)amino)-2-methyl-1H-imidazo[4,5-c]pyridin-1-yl)butanenitrile]
5 | 562 | COC1CCN(c2nccc(Nc3cc4c(cn3)nc(C)n4Cc3ccccc3)n2)CC1 [Example 356, 1-Benzyl-N-[2-(4-methoxy-1-piperidyl)pyrimidin-4-yl]-2-methyl-imidazo[4,5-c]pyridin-6-amine]
6 | 29.7 | Cc1cc(-c2nccc(Nc3cc4c(cn3)nc(C)n4C(C)C)n2)sn1 [Example 360, 1-Isopropyl-2-methyl-N-(2-(3-methylisothiazol-5-yl)pyrimidin-4-yl)-1H-imidazo[4,5-c]pyridin-6-amine]
7 | 31 | Cc1nc2cnc(Nc3ccnc(-c4cn(C)nc4N)n3)cc2n1C(C)C [Example 363, N-(2-(3-Amino-1-methyl-1H-pyrazol-4-yl)pyrimidin-4-yl)-1-isopropyl-2-methyl-1H-imidazo[4,5-c]pyridin-6-amine]
8 | 46.5 | Cc1nc2cnc(Nc3ccnc(-c4cnn(C)c4)n3)cc2n1C(C)C [Example 365, 1-Isopropyl-2-methyl-N-(2-(1-methyl-1H-pyrazol-4-yl)pyrimidin-4-yl)-1H-imidazo[4,5-c]pyridin-6-amine]
9 | 14.7 | Cc1nc2cnc(Nc3ccnc(-c4cnoc4)n3)cc2n1C(C)C [Example 366]
10 | 3.31 | CCC(C)n1cc(C(=O)NC2CCCOC2)c2cnc(Nc3ccnc(N4CCC(O)C(C)(C)C4)n3)cc21 (stereo not shown) [Example 374, 1-(sec-butyl)-6-((2-(4-hydroxy-3,3-dimethylpiperidin-1-yl)pyrimidin-4-yl)amino)-N-(tetrahydro-2H-pyran-3-yl)-lH-pyrrolo[3,2-c]pyridine-3-carboxamide]
11 | 6.96 | CO[C@@H]1CCN(c2nccc(Nc3cc4c(cn3)c(C(=O)NC3CCOCC3)cn4C(C)C)n2)C[C@@H]1F [Example 380, 6-((2-((3S,4R)-3-fluoro-4-methoxypiperidin-1-yl)pyrimidin-4-yl)amino)-1-isopropyl-N-(tetrahydro-2H-pyran-4-yl)-1H-pyrrolo [3,2-c]pyridine-3-carboxamide]
12 | 9.29 | CO[C@H]1CCN(c2nccc(Nc3cc4c(cn3)c(C(=O)NC3CCOCC3)cn4C(C)C)n2)C[C@H]1F [Example 381, 6-((2-((3R,4S)-3-fluoro-4-methoxypiperidin-1-yl)pyrimidin-4-yl)amino)-1-isopropyl-N-(tetrahydro-2H-pyran-4-yl)-1H-pyrrolo [3,2-c]pyridine-3-carboxamide]
13 | 1.11 | CC(C)n1cc(C(=O)NC2COC2)c2cnc(Nc3ccnc(-c4cnn(S(=O)(=O)C5CC5)c4)n3)cc21 [Example 386, 6-((2-(1-(cyclopropylsulfonyl)-1H-pyrazol-4-yl)pyrimidin-4-yl)amino)-1-isopropyl-N-(oxetan-3-yl)-1H-pyrrolo[3,2-c]pyridine-3-carboxamide]
14 | 29 | CC(C)n1cc(C(=O)NC2COC2)c2cnc(Nc3ccnc(-c4cnn(S(=O)(=O)N5CCCC5)c4)n3)cc21 [Example 388, 1-isopropyl-N-(oxetan-3-yl)-6-((2-(1-(pyrrolidin-1-ylsulfonyl)-1H-pyrazol-4-yl)pyrimidin-4-yl)amino)-1H-pyrrolo[3,2-c]pyridine-3-carboxamide]
15 | 1.41 | CCS(=O)(=O)n1cc(-c2nccc(Nc3cc4c(cn3)c(-c3cnn(CCS(C)(=O)=O)c3)cn4C(C)C)n2)cn1 [Example 392, N-(2-(1-(ethylsulfonyl)-1H-pyrazol-4-yl)pyrimidin-4-yl)-1-isopropyl-3-(1-(2-(methylsulfonyl)ethyl)-1H-pyrazol-4-yl)-1H-pyrrolo[3,2-c]pyridin-6-amine]
16 | 14.5 | Cc1nc2cnc(Nc3ccnc(-c4cnn(S(=O)(=O)N(C)C)c4)n3)cc2n1C(C)C [Example 397, 4-(4-((1-isopropyl-2-methyl-1H-imidazo[4,5-c]pyridin-6-yl)amino)pyrimidin-2-yl)-N,N-dimethyl-1H-pyrazole-1-sulfonamide]

Row | Ki [nM] | SMILES
17 | 14.1 | Cc1n[nH]cc1-c1nccc(Nc2cc3c(cn2)nc(C)n3C(C)C)n1 [Example 399, 1-isopropyl-2-methyl-N-(2-(3-methyl-1H-pyrazol-4-yl)pyrimidin-4-yl)-1H-imidazo[4,5-c]pyridin-6-amine]
18 | 2.66 | COC1CCN(c2nccc(Nc3cc4c(cn3)c(-c3cn[nH]c3)cn4C(C)C)n2)CC1 [Example 401, 1-isopropyl-N-(2-(4-methoxypiperidin-1-yl)pyrimidin-4-yl)-3-(1H-pyrazol-4-yl)-1H-pyrrolo[3,2-c]pyridin-6-amine]
19 | 0.84 | COC1CCN(c2nccc(Nc3cc4c(cn3)c(-c3cnn(CCO)c3)cn4C(C)C)n2)CC1 [Example 402, 2-(4-(1-isopropyl-6-((2-(4-methoxypiperidin-1-yl)pyrimidin-4-yl)amino)-1H-pyrrolo[3,2-c]pyridin-3-yl)-1H-pyrazol-1-yl)ethanol]
20 | 1.97 | Cc1nc2cnc(Nc3ccnc(-c4cnn(S(=O)(=O)C(C)C)c4)n3)cc2n1C(C)C [Example 409, 1-isopropyl-N-(2-(1-(isopropylsulfonyl)-1H-pyrazol-4-yl)pyrimidin-4-yl)-2-methyl-1H-imidazo[4,5-c]pyridin-6-amine]
21 | 4.86 | COC1CCN(c2nccc(Nc3cc4c(cn3)c(-c3cnn(CC(N)=O)c3)cn4C(C)C)n2)CC1 [Example 410, 2-(4-(1-isopropyl-6-((2-(4-methoxypiperidin-1-yl)pyrimidin-4-yl)amino)-1H-pyrrolo[3,2-c]pyridin-3-yl)-1H-pyrazol-1-yl)acetamide]
22 | 3.13 | COC1CCN(c2nccc(Nc3cc4c(cn3)c(-c3ccn(CC(N)=O)n3)cn4C(C)C)n2)CC1 [Example 411, 2-(3-(1-isopropyl-6-((2-(4-methoxypiperidin-1-yl)pyrimidin-4-yl)amino)-1H-pyrrolo[3,2-c]pyridin-3-yl)-1H-pyrazol-1-yl) acetamide]
23 | 169 | CC(C)n1c(CO)nc2cnc(Nc3ccnc(N4CCC(C)(O)CC4)n3)cc21 [Example 418, 1-(4-((2-(hydroxymethyl)-1-isopropyl-1H-imidazo[4,5-c]pyridin-6-yl)amino)pyrimidin-2-yl)-4-methylpiperidin-4-ol]
24 | 119 | Cc1nc2cnc(Nc3ccnc(N4CCC(O)C(C)(C)C4)n3)cc2n1C(C)C (stereo not shown) [Example 427, 1-(4-((1-isopropyl-2-methyl-1H-imidazo[4,5-c]pyridin-6-yl)amino)pyrimidin-2-yl)-3,3-dimethylpiperidin-4-ol]
25 | 47.7 | Cc1nc2cnc(Nc3ccnc(-c4cnn(CCCN)c4)n3)cc2n1C(C)C [Example 430, N-(2-(1-(3-aminopropyl)-1H-pyrazol-4-yl)pyrimidin-4-yl)-1-isopropyl-2-methyl-1H-imidazo[4,5-c]pyridin-6-amine]
26 | 2.36 | Cc1cc(-c2cn(C(C)C)c3cc(Nc4ccnc(-c5cnn(S(=O)(=O)C6CC6)c5)n4)ncc23)nn1CCO [Example 435, 2-(3-(6-(2-(1-(cyclopropylsulfonyl)-1H-pyrazol-4-yl)pyrimidin-4-ylamino)-1-isopropyl-1H-pyrrolo[3,2-c]pyridin-3-yl)-5-methyl-1H-pyrazol-1-yl)ethanol]
27 | 1.18 | Cc1cc(-c2cn(C(C)C)c3cc(Nc4ccnc(-c5cnn(S(=O)(=O)C6CC6)c5)n4)ncc23)n(CCO)n1 [Example 436, 2-(5-(6-(2-(1-(cyclopropylsulfonyl)-1H-pyrazol-4-yl)pyrimidin-4-ylamino)-1-isopropyl-1H-pyrrolo[3,2-c]pyridin-3-yl)-3-methyl-1H-pyrazol-1-yl)ethanol]
28 | 1.21 | Cc1nn(CCO)cc1-c1cn(C(C)C)c2cc(Nc3ccnc(-c4cnn(S(=O)(=O)C5CC5)c4)n3)ncc12 [Example 437, 2-(4-(6-(2-(1-(cyclopropylsulfonyl)-1H-pyrazol-4-yl)pyrimidin-4-ylamino)-1-isopropyl-1H-pyrrolo[3,2-c]pyridin-3-yl)-3-methyl-1H-pyrazol-1-yl)ethanol]
29 | 1.06 | Cc1c(-c2cn(C(C)C)c3cc(Nc4ccnc(-c5cnn(S(=O)(=O)C6CC6)c5)n4)ncc23)cnn1CCO [Example 438, 2-(4-(6-(2-(1-(cyclopropylsulfonyl)-1H-pyrazol-4-yl)pyrimidin-4-ylamino)-1-isopropyl-1H-pyrrolo[3,2-c]pyridin-3-yl)-5-methyl-1H-pyrazol-1-yl)ethanol]
30 | 0.8 | CC(C)n1cc(-c2cnn(C3COC3)c2)c2cnc(Nc3ccnc(-c4cnn(S(=O)(=O)C5CC5)c4)n3)cc21 [Example 441, N-(2-(1-(cyclopropylsulfonyl)-1H-pyrazol-4-yl)pyrimidin-4-yl)-1-isopropyl-3-(1-(oxetan-3-yl)-1H-pyrazol-4-yl)-1H-pyrrolo[3,2-c]pyridin-6-amine]
31 | 0.81 | CC(C)n1cc(-c2cn3c(n2)CNCC3)c2cnc(Nc3ccnc(-c4cnn(S(=O)(=O)C5CC5)c4)n3)cc21 [Example 442, N-(2-(1-(cyclopropylsulfonyl)-1H-pyrazol-4-yl)pyrimidin-4-yl)-1-isopropyl-3-(5,6,7,8-tetrahydroimidazo[1,2-a]pyrazin-2-yl)-1H-pyrrolo[3,2-c]pyridin-6-amine]
